Reference: the kinase profiling compilation of Christmann-Franck et al. (2016)

What was measured:
Assay in all cases: radiometric filter-binding kinase assay, Kinase HotSpot
Conditions in all cases: compound 0.5 µM; ATP 10 µM
[1] = target: FGFR3 (human) (UniProt P22607)
[2] = target: CDK3 CCNE1 (human) (UniProt Q00526+P24864)
[3] = target: CSK (human) (UniProt P41240)
[4] = target: DYRK4 (human) (UniProt Q9NR20)
[5] = target: CAMKK2 (human) (UniProt Q96RR4)
[6] = target: STK25 (human) (UniProt O00506)
Chain of STK25 (human) (O00506 whole entry, looked up): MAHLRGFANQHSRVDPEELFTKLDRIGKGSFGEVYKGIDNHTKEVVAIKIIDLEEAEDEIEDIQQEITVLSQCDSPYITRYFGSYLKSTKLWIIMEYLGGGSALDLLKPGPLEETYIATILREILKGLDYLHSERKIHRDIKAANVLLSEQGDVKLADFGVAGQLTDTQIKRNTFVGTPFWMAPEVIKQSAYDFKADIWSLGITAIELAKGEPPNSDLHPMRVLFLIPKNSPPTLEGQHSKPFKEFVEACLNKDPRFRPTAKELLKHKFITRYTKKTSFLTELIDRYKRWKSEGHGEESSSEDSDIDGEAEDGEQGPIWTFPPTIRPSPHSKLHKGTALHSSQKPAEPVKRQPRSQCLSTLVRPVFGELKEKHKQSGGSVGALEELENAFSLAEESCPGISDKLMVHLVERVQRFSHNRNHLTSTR

[7] = target: CDC42BPA (human) (UniProt Q5VT25)
Chain of CDC42BPA (human) (Q5VT25 whole entry, looked up): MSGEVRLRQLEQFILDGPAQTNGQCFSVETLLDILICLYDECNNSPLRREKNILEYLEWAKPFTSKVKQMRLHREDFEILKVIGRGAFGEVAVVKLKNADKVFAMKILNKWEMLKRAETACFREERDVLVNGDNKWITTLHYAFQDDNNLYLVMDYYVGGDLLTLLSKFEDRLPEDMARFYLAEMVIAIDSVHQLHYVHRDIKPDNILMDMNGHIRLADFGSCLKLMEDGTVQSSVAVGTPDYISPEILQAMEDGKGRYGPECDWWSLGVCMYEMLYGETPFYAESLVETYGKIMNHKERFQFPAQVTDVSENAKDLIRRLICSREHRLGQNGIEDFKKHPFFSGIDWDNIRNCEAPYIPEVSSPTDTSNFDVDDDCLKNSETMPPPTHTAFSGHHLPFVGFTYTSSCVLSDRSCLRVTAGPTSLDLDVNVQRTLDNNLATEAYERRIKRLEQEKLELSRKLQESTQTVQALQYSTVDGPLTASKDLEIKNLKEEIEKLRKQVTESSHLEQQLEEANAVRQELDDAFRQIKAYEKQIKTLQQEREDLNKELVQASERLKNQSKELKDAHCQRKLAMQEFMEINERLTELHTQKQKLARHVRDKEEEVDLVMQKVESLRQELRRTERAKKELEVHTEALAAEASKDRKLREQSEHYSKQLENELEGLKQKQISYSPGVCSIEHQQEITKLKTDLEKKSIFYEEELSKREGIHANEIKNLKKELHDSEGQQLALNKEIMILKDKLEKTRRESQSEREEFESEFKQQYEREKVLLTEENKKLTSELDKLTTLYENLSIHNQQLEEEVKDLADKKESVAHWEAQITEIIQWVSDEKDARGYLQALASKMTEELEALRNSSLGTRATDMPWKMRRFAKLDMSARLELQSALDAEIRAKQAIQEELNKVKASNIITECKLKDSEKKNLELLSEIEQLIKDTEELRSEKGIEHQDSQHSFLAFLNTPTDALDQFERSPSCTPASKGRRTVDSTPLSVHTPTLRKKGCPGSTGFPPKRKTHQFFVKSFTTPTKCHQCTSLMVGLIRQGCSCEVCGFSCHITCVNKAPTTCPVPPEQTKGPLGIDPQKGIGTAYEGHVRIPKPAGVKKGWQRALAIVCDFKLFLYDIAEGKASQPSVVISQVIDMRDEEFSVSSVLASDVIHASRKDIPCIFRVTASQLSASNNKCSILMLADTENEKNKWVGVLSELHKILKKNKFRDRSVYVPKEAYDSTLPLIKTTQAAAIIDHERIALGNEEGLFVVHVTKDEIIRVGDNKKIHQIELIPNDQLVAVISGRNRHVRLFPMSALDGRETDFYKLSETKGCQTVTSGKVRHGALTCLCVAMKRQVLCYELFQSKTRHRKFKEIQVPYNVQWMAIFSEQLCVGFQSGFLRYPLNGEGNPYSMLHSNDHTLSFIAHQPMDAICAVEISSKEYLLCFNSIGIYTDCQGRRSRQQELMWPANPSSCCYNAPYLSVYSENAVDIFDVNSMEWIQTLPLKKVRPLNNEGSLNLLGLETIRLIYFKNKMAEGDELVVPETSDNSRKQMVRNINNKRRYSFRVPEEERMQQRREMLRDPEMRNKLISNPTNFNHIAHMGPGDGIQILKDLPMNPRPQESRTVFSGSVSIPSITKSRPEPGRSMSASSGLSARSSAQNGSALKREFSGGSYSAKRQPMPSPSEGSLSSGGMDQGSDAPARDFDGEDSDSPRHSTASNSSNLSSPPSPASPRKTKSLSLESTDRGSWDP

[8] = target: GSK3A (human) (UniProt P49840)
[9] = target: EPHA2 (human) (UniProt P29317)
[10] = target: MAP3K2 (human) (UniProt Q9Y2U5)
[11] = target: ULK1 (human) (UniProt O75385)
[12] = target: MAP4K5 (human) (UniProt Q9Y4K4)
[13] = target: ERBB2 (human) (UniProt P04626)
[14] = target: CSNK1D (human) (UniProt P48730)
[15] = target: SRPK1 (human) (UniProt Q96SB4)
[16] = target: MAP2K1 (human) (UniProt Q02750)
[17] = target: MAPK1 (human) (UniProt P28482)
[18] = target: PIM3 (human) (UniProt Q86V86)
[19] = target: EPHB2 (human) (UniProt P29323)
[20] = target: MAP3K9 (human) (UniProt P80192)
[21] = target: CAMK2G (human) (UniProt Q13555)
[22] = target: GRK6 (human) (UniProt P43250)
[23] = target: MAPK3 (human) (UniProt P27361)
Chain of MAPK3 (human) (P27361 whole entry, looked up): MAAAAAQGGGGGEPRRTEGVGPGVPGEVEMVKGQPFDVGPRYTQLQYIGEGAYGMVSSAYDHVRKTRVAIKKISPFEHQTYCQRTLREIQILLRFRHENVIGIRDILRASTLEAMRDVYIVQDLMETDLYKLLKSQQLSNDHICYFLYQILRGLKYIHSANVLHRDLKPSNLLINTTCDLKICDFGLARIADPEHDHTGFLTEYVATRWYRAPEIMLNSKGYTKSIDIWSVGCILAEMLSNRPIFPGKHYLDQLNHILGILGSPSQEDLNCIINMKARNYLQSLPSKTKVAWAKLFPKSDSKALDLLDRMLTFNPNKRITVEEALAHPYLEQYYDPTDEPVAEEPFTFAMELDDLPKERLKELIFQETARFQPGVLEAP

[24] = target: CLK4 (human) (UniProt Q9HAZ1)
Chain of CLK4 (human) (Q9HAZ1 whole entry, looked up): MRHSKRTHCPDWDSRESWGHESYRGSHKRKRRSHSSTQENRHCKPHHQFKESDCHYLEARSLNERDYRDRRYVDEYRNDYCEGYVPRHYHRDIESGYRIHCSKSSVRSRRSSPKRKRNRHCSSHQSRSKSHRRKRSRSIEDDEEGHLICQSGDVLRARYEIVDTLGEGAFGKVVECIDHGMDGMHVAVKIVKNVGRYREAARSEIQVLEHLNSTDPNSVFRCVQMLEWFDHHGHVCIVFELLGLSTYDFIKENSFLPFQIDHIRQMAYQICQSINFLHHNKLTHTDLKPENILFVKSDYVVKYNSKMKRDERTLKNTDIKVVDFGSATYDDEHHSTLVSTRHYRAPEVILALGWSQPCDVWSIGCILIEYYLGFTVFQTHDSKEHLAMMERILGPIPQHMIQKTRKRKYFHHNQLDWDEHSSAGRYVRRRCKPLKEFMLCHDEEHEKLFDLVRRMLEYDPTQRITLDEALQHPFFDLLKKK

[25] = target: TGFBR1 (human) (UniProt P36897)
[26] = target: SYK (human) (UniProt P43405)
[27] = target: EPHB1 (human) (UniProt P54762)
[28] = target: BTK (human) (UniProt Q06187)
[29] = target: PAK6 (human) (UniProt Q9NQU5)
[30] = target: RPS6KA5 KD2 (human) (UniProt O75582)
[31] = target: NEK4 (human) (UniProt P51957)
[32] = target: EPHA5 (human) (UniProt P54756)
[33] = target: GSK3B (human) (UniProt P49841)
[34] = target: KDR (human) (UniProt P35968)
[35] = target: PRKG2 (human) (UniProt Q13237)
[36] = target: WEE1 (human) (UniProt P30291)
[37] = target: SRPK3 (human) (UniProt Q9UPE1)
[38] = target: BRSK1 (human) (UniProt Q8TDC3)
[39] = target: ZAP70 (human) (UniProt P43403)
Chain of ZAP70 (human) (P43403 whole entry, looked up): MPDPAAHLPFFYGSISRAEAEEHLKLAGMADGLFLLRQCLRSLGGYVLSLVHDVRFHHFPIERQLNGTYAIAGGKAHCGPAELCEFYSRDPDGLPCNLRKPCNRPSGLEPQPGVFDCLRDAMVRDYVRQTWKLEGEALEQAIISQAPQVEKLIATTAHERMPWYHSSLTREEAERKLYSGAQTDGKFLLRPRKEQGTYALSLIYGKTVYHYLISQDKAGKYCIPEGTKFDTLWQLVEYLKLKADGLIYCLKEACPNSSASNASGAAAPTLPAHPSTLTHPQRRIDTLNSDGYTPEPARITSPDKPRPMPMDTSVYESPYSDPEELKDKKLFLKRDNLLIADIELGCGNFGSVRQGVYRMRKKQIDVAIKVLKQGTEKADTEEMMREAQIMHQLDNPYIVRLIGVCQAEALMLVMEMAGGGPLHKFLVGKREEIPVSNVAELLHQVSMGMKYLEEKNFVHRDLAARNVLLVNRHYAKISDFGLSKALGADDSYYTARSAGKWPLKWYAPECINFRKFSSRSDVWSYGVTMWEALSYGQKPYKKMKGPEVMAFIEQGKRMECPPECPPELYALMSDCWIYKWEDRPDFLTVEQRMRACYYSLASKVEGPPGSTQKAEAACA

[40] = target: CAMK1 (human) (UniProt Q14012)
[41] = target: RPS6KA3 KD1 KD2 (human) (UniProt P51812)

Chain of CDK3 CCNE1 (human) (P24864 whole entry, looked up): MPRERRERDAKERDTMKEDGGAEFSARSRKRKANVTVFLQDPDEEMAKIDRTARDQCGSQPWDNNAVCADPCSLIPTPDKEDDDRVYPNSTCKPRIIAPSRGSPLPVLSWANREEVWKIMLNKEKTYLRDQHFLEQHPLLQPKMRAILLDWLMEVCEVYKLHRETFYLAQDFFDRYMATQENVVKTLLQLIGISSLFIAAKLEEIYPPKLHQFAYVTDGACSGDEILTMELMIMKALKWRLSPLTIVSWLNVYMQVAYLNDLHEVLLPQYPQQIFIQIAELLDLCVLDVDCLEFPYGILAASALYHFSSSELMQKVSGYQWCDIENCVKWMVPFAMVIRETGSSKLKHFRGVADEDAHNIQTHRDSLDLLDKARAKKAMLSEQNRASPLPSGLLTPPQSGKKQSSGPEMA
Chain of CDK3 CCNE1 (human) (Q00526 whole entry, looked up): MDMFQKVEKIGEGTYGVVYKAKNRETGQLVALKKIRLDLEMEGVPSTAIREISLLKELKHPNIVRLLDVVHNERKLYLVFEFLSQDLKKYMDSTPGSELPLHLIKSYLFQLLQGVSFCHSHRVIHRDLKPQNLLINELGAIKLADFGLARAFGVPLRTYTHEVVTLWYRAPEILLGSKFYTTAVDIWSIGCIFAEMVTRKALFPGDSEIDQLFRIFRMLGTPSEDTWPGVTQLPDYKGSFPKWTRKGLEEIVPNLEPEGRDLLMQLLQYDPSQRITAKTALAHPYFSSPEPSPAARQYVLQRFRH
Chain of DYRK4 (human) (Q9NR20 whole entry, looked up): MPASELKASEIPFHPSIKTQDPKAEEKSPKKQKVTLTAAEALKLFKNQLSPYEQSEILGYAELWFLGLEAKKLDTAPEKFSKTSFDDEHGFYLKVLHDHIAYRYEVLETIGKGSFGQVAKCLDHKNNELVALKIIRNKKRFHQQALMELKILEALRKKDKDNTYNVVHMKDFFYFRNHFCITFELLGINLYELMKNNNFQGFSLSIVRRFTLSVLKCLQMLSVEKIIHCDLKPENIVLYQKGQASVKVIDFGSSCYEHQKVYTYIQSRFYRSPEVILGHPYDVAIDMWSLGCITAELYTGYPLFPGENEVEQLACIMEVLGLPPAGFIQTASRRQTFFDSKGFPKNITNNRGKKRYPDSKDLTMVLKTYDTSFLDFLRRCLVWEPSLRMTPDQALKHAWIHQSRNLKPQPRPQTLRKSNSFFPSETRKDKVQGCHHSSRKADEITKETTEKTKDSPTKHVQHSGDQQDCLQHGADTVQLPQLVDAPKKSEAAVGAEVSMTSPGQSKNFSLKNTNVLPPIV

**Q.** With Cn1c2ccccc2c2c3c(c4c5ccccc5n(CCC#N)c4c21)CNC3=O as the compound, how does the residual activity [1] read?
**A.** Its residual activity is 76.7%.

**Q.** What about the residual activity [2] of the same compound?
**A.** Its residual activity is 65.2%.

**Q.** What about the residual activity [3] of the same compound?
**A.** The residual activity was 81%.

**Q.** What about the residual activity [4] of the same compound?
**A.** The residual activity was 95.7%.

**Q.** What about the residual activity [5] of the same compound?
**A.** The residual activity was 3.88%.

**Q.** And the residual activity [6]?
**A.** The residual activity was 83.9%.

**Q.** What about the residual activity [7] of the same compound?
**A.** The residual activity was 89.9%.

**Q.** And the residual activity [8]?
**A.** Its residual activity is 35.6%.

**Q.** What about the residual activity [9] of the same compound?
**A.** The residual activity was 92.5%.

**Q.** What about the residual activity [10] of the same compound?
**A.** Its residual activity is 2.96%.

**Q.** What about the residual activity [11] of the same compound?
**A.** The residual activity was 106%.

**Q.** What about the residual activity [12] of the same compound?
**A.** The residual activity was 4.18%.

**Q.** And the residual activity [13]?
**A.** Its residual activity is 107%.

**Q.** And the residual activity [14]?
**A.** Its residual activity is 97.5%.

**Q.** And the residual activity [15]?
**A.** Its residual activity is 98.3%.

**Q.** What about the residual activity [16] of the same compound?
**A.** Its residual activity is 90.2%.

**Q.** What about the residual activity [17] of the same compound?
**A.** Its residual activity is 104%.

**Q.** And the residual activity [18]?
**A.** Its residual activity is 17.3%.

**Q.** And the residual activity [19]?
**A.** Its residual activity is 77.7%.

**Q.** What about the residual activity [20] of the same compound?
**A.** The residual activity was 1.49%.

**Q.** And the residual activity [21]?
**A.** The residual activity was 21.9%.

**Q.** And the residual activity [22]?
**A.** Its residual activity is 44.4%.

**Q.** What about the residual activity [23] of the same compound?
**A.** The residual activity was 72.6%.

**Q.** And the residual activity [24]?
**A.** Its residual activity is 66.2%.

**Q.** And the residual activity [25]?
**A.** The residual activity was 104%.

**Q.** What about the residual activity [26] of the same compound?
**A.** The residual activity was 14.6%.

**Q.** What about the residual activity [27] of the same compound?
**A.** Its residual activity is 95%.

**Q.** And the residual activity [28]?
**A.** The residual activity was 22%.

**Q.** And the residual activity [29]?
**A.** Its residual activity is 20.4%.

**Q.** And the residual activity [30]?
**A.** Its residual activity is 23.7%.

**Q.** What about the residual activity [31] of the same compound?
**A.** Its residual activity is 49.1%.

**Q.** What about the residual activity [32] of the same compound?
**A.** The residual activity was 88.2%.

**Q.** And the residual activity [33]?
**A.** The residual activity was 38.9%.

**Q.** What about the residual activity [34] of the same compound?
**A.** The residual activity was 57%.

**Q.** And the residual activity [35]?
**A.** Its residual activity is 28.2%.

**Q.** What about the residual activity [36] of the same compound?
**A.** Its residual activity is 85.4%.

**Q.** What about the residual activity [37] of the same compound?
**A.** The residual activity was 92.8%.

**Q.** And the residual activity [38]?
**A.** The residual activity was 20.2%.

**Q.** And the residual activity [39]?
**A.** Its residual activity is 77.7%.

**Q.** What about the residual activity [40] of the same compound?
**A.** Its residual activity is 94.2%.

**Q.** What about the residual activity [41] of the same compound?
**A.** The residual activity was 5.93%.

**Q.** How did the residual activity [1] turn out when C[C@@H]1CCN(C(=O)CC#N)C[C@@H]1N(C)c1ncnc2[nH]ccc12 was run?
**A.** Its residual activity is 95.3%.

**Q.** And the residual activity [2]?
**A.** Its residual activity is 92.3%.

**Q.** What about the residual activity [3] of the same compound?
**A.** The residual activity was 101%.

**Q.** What about the residual activity [4] of the same compound?
**A.** Its residual activity is 97.2%.

**Q.** And the residual activity [5]?
**A.** Its residual activity is 97.7%.

**Q.** And the residual activity [6]?
**A.** Its residual activity is 97.2%.

**Q.** And the residual activity [7]?
**A.** The residual activity was 110%.

**Q.** What about the residual activity [8] of the same compound?
**A.** The residual activity was 103%.

**Q.** What about the residual activity [9] of the same compound?
**A.** Its residual activity is 95.8%.

**Q.** What about the residual activity [10] of the same compound?
**A.** Its residual activity is 123%.

**Q.** What about the residual activity [11] of the same compound?
**A.** The residual activity was 83%.

**Q.** What about the residual activity [12] of the same compound?
**A.** The residual activity was 112%.

**Q.** What about the residual activity [13] of the same compound?
**A.** Its residual activity is 109%.

**Q.** What about the residual activity [15] of the same compound?
**A.** The residual activity was 99.8%.

**Q.** And the residual activity [16]?
**A.** The residual activity was 112%.

**Q.** And the residual activity [17]?
**A.** The residual activity was 88.6%.

**Q.** What about the residual activity [18] of the same compound?
**A.** Its residual activity is 96.5%.

**Q.** And the residual activity [19]?
**A.** Its residual activity is 100%.

**Q.** What about the residual activity [20] of the same compound?
**A.** Its residual activity is 113%.

**Q.** And the residual activity [21]?
**A.** The residual activity was 127%.

**Q.** What about the residual activity [22] of the same compound?
**A.** The residual activity was 101%.

**Q.** And the residual activity [23]?
**A.** Its residual activity is 98.6%.

**Q.** What about the residual activity [24] of the same compound?
**A.** Its residual activity is 111%.

**Q.** And the residual activity [25]?
**A.** The residual activity was 98.8%.

**Q.** What about the residual activity [27] of the same compound?
**A.** Its residual activity is 106%.

**Q.** What about the residual activity [29] of the same compound?
**A.** The residual activity was 102%.

**Q.** What about the residual activity [30] of the same compound?
**A.** Its residual activity is 94.8%.

**Q.** And the residual activity [31]?
**A.** The residual activity was 96%.

**Q.** And the residual activity [32]?
**A.** The residual activity was 99.9%.

**Q.** What about the residual activity [33] of the same compound?
**A.** The residual activity was 99.6%.

**Q.** What about the residual activity [35] of the same compound?
**A.** The residual activity was 106%.

**Q.** And the residual activity [36]?
**A.** The residual activity was 97.7%.

**Q.** And the residual activity [37]?
**A.** The residual activity was 103%.

**Q.** And the residual activity [38]?
**A.** The residual activity was 102%.

**Q.** And the residual activity [39]?
**A.** Its residual activity is 105%.

**Q.** And the residual activity [40]?
**A.** The residual activity was 99.3%.

**Q.** And the residual activity [41]?
**A.** Its residual activity is 97%.
